In patent US20230130831A1, “METHODS FOR DETECTING AND TREATING JOINT DISEASE” (Washington University, priority 2021, published 2023):
One block for each molecule: values may come before it. Where a SMILES comes first, the peptide text is derived from it. Bridges are numbered along the chain shown (N, C = ends). [ ]: non-standard residue; d: D form. The star is where a group is joined. X1 = CC1(C)C(/C=C/C=C/C=C/C=C2/N(CCC(=O)*)c3ccc4ccccc4c3C2(C)C)=[N+](CCC(=O)[O-])c2ccc3ccccc3c21

Key:
[1] = system: C57BL/6 mice with induced arthritis (K/BxN serum transfer); test: Serum transfer arthritis: clinical paw scores and ankle thickness after treatment; type: in vivo, mouse
Experimental: To establish serum transfer arthritis (STA), male 6-8 weeks old C57BL/6J mice were injected intraperitoneally with 150-175 μL of serum derived from F1 mice (8-9 weeks old). Day 0 denoted induction of serum transfer/disease. Clinical manifestation of arthritis in each paw was assessed daily on a scale of 0-3 with 0=no swelling or erythema, 1=slight swelling or erythema, 2=moderate erythema and swelling in multiple digits or entire paw, and 3=pronounced erythema and swelling of an entire paw, with a maximum score of 12 per mouse. The ankle thickness of two hind paws was measured using calipers. Animals were monitored for distress during arthritis induction, including their ability to move around the cage and access food/water. Experiments were blinded, where the technician responsible for clinical assessment of paw score and ankle measurements was blinded to treatment groups. […] Clinical paw scores and ankle measurements were obtained daily. […] Mice received intraperitoneal DEX (10 mg/kg/dose) daily over 6 days. Clinical paw scores and ankle measurements were obtained daily. […] C57BL/6 mice with induced arthritis (K/Bxn serum transfer) were imaged with 6 nmol intravenous LS301 at day 4 post-disease induction. […] Individual limbs of the mice were scored for paw edema and measured for ankle thickness by calipers.

[2] = system: C57BL/6J mice with serum transfer arthritis; settings: mouse, in vivo
Experimental: Animals were shaved. Excess hair was removed using commercially available hair removal cream. Mice were anesthetized with isoflurane for injection and imaging procedures. LS301 stock (or LS301-methotrexate or LS301-methylprednisolone derivative stock) in dimethyl sulfoxide solution was diluted in phosphate-buffered saline to a final concentration of 60 μM and injected via tail vein into mice. In-vivo near-infrared fluorescence using 785 nm excitation and 820 nm emission filters was assessed pre-injection, post-injection, and/or at indicated time points post-injection with a Pearl Small Animal Imaging System (LICOR Biotechnology, Lincoln, Nebr.). Regions of interest (ROIs) for fluorescence quantitation were drawn and analyzed using the Pearl Small Animal Imaging System software.
C57BL/6J mice with serum arthritis (days 5-6 post serum transfer) (left) or control C57BL/6J mice (right) were injected intravenously with 6 nmol LS301. […] Near-infrared fluorescence images were taken on the Pearl animal imaging system with λ=820 nm. […] ROIs were drawn around each organ/limb of interest and quantitated using the Pearl animal imaging system software.
C57BL/6 mice with induced arthritis (K/Bxn serum transfer, days 5-6 post serum transfer) were injected subcutaneously (flank) with 6 nmol LS301. […] Near-infrared fluorescence images were taken on Pearl Imaging System with λ=800 nm.

pANXA2 = pANXA2 (Homo sapiens, UniProt P07355); settings: previously found; cited from earlier work
[3] = system: Raw 264.7 macrophage cells; test: In-vitro anti-inflammatory effect: LPS-induced cytokines by cytokine bead array; type: cell-based; settings: combined with near-infrared (780 nm) laser irradiation
Experimental: MTX alone and controls. Raw 264.7 macrophage cells were treated with methotrexate (MTX), LS301-MTX, LS301 alone, or LS301 combined with near-infrared (780 nm) laser irradiation. Levels of inflammation-associated (LPS-induced) cytokines, including IL-6 and IL-10, were measured by cytokine bead array.

[4] = system: K/BxN (F1) mice with spontaneous arthritis; test: Whole-body near-infrared fluorescence imaging in K/BxN spontaneous arthritis mice
Experimental: The K/BxN mice with spontaneous arthritis (F1) were maintained in the laboratory. To establish serum transfer arthritis (STA), male 6-8 weeks old C57BL/6J mice were injected intraperitoneally with 150-175 μL of serum derived from F1 mice (8-9 weeks old). Day 0 denoted induction of serum transfer/disease. Clinical manifestation of arthritis in each paw was assessed daily on a scale of 0-3 with 0=no swelling or erythema, 1=slight swelling or erythema, 2=moderate erythema and swelling in multiple digits or entire paw, and 3=pronounced erythema and swelling of an entire paw, with a maximum score of 12 per mouse. The ankle thickness of two hind paws was measured using calipers. Animals were monitored for distress during arthritis induction, including their ability to move around the cage and access food/water.
In the K/BxN (F1) mice with spontaneous arthritis, inflammation occurs progressively in the paws, ankle, and knee joints leading to measurable local erythema and swelling. F1 mice with severe arthritis (9-10 weeks old) were injected intravenously with LS301 and imaged 18 h post-injection for near-infrared fluorescence using the Pearl Small Animal Imaging System.
Arthritic or control (non-diseased) mice were injected intravenously with 6 nmol LS301. […] Images shown represented at least two independent experiments and were taken at 18 h post-injection with mice in dorsal orientation.
Mice were injected intravenously with 6 nmol LS301. […] Images shown were taken at 18 h post-injection with mice in dorsal orientation. (A) Early stage RA (3-4 week old K/Bxn mice). (B) Intermediate stage RA ([…] K/Bxn mice). (C) Late-stage RA (9-10 week old K/Bxn mice). (D) Normal (control) C57BL/6J mice. (E) K/Bxn mice (3-4 weeks old) were injected with cypate dye (control) instead of LS301.
K/BxN mice (9-10 wk. old) were injected intravenously with 6 nmol LS301.

Sequence of pANXA2 (P07355 whole entry): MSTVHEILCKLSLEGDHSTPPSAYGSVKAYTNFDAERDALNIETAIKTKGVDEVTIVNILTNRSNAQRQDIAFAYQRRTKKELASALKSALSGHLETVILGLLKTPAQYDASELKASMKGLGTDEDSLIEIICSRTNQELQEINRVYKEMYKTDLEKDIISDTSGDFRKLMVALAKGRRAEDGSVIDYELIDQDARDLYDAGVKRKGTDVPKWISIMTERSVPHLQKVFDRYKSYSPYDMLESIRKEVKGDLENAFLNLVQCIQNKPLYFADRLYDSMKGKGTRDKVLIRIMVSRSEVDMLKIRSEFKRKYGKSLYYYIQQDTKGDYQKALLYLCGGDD

SMILES: CC1(C)C(/C=C/C=C/C=C/C=C2/N(CCC(=O)N[C@@H]3CSSC[C@@H](C(=O)N[C@@H](CCCCN)C(=O)O)NC(=O)[C@@H]4CCCN4C(=O)[C@H](CO)NC(=O)[C@H](CC(=O)O)NC(=O)[C@H](CCCNC(=N)N)NC(=O)CNC3=O)c3ccc4ccccc4c3C2(C)C)=[N+](CCC(=O)[O-])c2ccc3ccccc3c21 [LS301, cypate-cyclic (DCys-Gly-Arg-Asp-Ser-Pro-Cys)-Lys-OH] (X1-[dC]GRDSPCK-OH; disulfide 1-7)
effect on disease progression ([1]; imaging dose (6 nmol), LS301 alone): did not significantly affect disease progression
kidney signal, arthritic mice vs controls [2]: possible nonsignificant trend toward increased kidney signal in arthritic mice when compared to controls
affinity for pANXA2 (pANXA2): high affinity
inflammatory state of macrophages (LPS-induced cytokines incl. IL-6, IL-10) [3]: suppress the inflammatory state of macrophages
clearance from the body ([4]; mouse, in vivo, iv): 2.5 days
time point of contrast post-injection ([4]; mouse, in vivo, iv): ~18 h

accumulation in extremities / regions of arthritic joint disease ([4]; K/BxN F1 arthritic mice, i.v., 18 h): No accumulation was found in extremities
SMILES: CC1(C)C(/C=C/C=C/C=C/C=C2/N(CCC(=O)O)c3ccc4ccccc4c3C2(C)C)=[N+](CCC(=O)[O-])c2ccc3ccccc3c21 [cypate, reference compound]

SMILES: CN(Cc1cnc2nc(N)nc(N)c2n1)c1ccc(C(=O)N[C@@H](CCC(=O)O)C(=O)O)cc1 [methotrexate, reference compound]
clinical scores ([1]; three doses i.p. 2 mg/kg/dose over seven days, day 23 post-treatment initiation): clinical scores of mice had significantly decreased
